# Where “and” joins values, the source holds several entries; their conditions need not be identical. Identical values can stand only once. Like-named read-outs stand apart in the source and are kept apart here.
# How the values were obtained:
# human ACC1 [1] = target: human ACC1 (Homo sapiens, UniProt Q13085); experiment: Human ACC1 enzyme assay (ADP-Glo); type: biochemical; settings: individual measurement (measurement no./preparation no. in table), read-out: ACC 1 IC50
# Protocol: (§1) Typical concentrations were in the range of 1.75 μl.
# human ACC1 [2] = experiment: Human ACC1 enzyme assay (ADP-Glo); type: biochemical
# Protocol: as §1
# [3] = Pharmacokinetic parameters in the rat (i.v. and intragastric); type: in vivo; settings: for F: oral bioavailability; for t½: terminal
# Protocol: Determination of the Pharmacokinetic Parameters of a Test Substance in the Rat and in the Dog For this, the test substances were applied in dissolved form both for intravenous, and for intragastric application, wherein compatible solubilizers such as PEG400 and/or ethanol were used in a compatible amount. […] Administration was as a bolus injection in the male rat and as an infusion in the female dog (15 min) At various time points after the bolus injection, and before and after the 15-minute infusion, blood samples of about 100-150 μl were removed via a catheter either from the jugular vein (rat) or from the saphenous vein (dog). Lithium-heparin was added as anticoagulant to the blood samples and they were stored in a refrigerator until required for further processing. After centrifugation of the samples for 15 min at 3000 rpm, an aliquot of 100 μl was taken from the supernatant (plasma) and was precipitated by adding 400 μl of cold ACN or methanol (absolute). The precipitated samples were frozen-out at […] overnight, then centrifuged again at 3000 rpm for 15 min, before 150 μl of the clear supernatant were removed to determine the concentration. The analysis was effected by means of an Agilent 1200 HPLC system with connected LCMS/MS detection. Calculation of the PK parameters (using PK calculation software, e.g. WinNonLin®): CLplasma: total plasma clearance of the test substance (in 1*kg/h); CLblood: total blood clearance of the test substance (in 1*kg/h), where (CLblood=CLplasma*Cp/Cb); Vss: apparent steady-state distribution volume (in 1/kg); t½: half-life within a specified interval (here: terminal t½, in h); AUCnorm: area under the plasma concentration time profile from time point zero extrapolated to infinity divided by the dose normalized for body weight (in kg*l/h); AUC(0-tn)norm: integrated area under the plasma concentration time profile from time point zero until the last time point at which a plasma concentration was measurable, divided by the dose normalized for body weight (in kg*l/h); Cmax: maximum concentration of the test substance in the plasma (in μg/l); Cmax,norm: maximum concentration of the test substance in the plasma divided by the dose normalized for body weight (in kg/l); Cb/Cp: ratio of the blood to plasma concentration distribution. […] At various time points after administration, blood samples of about 100-150 μl were removed via a catheter either from the jugular vein (rat) or from the saphenous vein (dog). Lithium-heparin was added as anticoagulant to the blood samples and they were stored in a refrigerator until required for further processing. After centrifugation of the samples for 15 min at 3000 rpm, an aliquot of 100 μl was taken from the supernatant (plasma) and was precipitated by adding 400 μl of cold ACN or methanol (absolute). The precipitated samples were frozen-out at −20° C. overnight, then centrifuged at 3000 rpm for 15 min, before 150 μl of the clear supernatant were removed to determine the concentration. The analysis was effected by means of an Agilent 1200 HPLC system with connected LCMS/MS detection. […]
# [4] = Prediction of human pharmacokinetic parameters and human therapeutic dosage (single species scaling from rat); settings: for pred. CL (human): predicted (fu-corrected) from rat PK
# Protocol: The human pharmacokinetic (PK) parameters (Table 9) were predicted based on the in vivo PK parameters obtained for rats (single species scaling), taking into account the interspecies differences in the free fraction (fu) in the plasma. The effective AUC (area under curve) was determined based on the measured plasma concentration time profile for in vivo efficacy in the PC3 tumour model of the mouse (nu/nu mouse). The therapeutic human dosage was determined using the predicted human clearance (CL), assuming 100% bioavailability (F=1) and using the effective AUC in the animal model according to the formula below: […]
# human PC-3 cells = settings: for T/C: final tumour weight
# Protocol: Xenograft models in immunosuppressed mice were used to determine the antitumour activity in living organisms.
# Use was made primarily of a prostate carcinoma model with hormone-independent human PC-3 cells in male nude mice (NMRI-nude (nu/nu) mice, Taconic M&B A/S). To this end, 3 million tumour cells (suspended in medium+Matrigel 1:1, final 0.1 ml) were injected subcutaneously into the side of each animal. When the tumours extended to an area of 20-30 mm^2, the mice were randomized into therapy groups and therapy was initiated. […] At this point in time, the experiment was terminated in all groups and the prepared tumours were weighed.
# The T/C value was calculated as primary success parameter using the effect on the final tumour weight: mean tumour weight in the treatment group divided by mean of the tumour weight in the vehicle group.
# (§2) Administration route: oral
# Vehicle: PEG400/ethanol/Solutol HS 15 (70/5/25, v/v/v)
# Administration volume: 10 ml/kg
# Number of mice: see Table 8
# human ACC2 = human ACC2 (Homo sapiens (Human), UniProt O00763); experiment: Human ACC2 enzyme assay (ADP-Glo); settings: read-out: ACC 2 IC50, individual measurement (measurement no./preparation no. in table)
# Sequence of human ACC2 (O00763 27-2458 limits assumed): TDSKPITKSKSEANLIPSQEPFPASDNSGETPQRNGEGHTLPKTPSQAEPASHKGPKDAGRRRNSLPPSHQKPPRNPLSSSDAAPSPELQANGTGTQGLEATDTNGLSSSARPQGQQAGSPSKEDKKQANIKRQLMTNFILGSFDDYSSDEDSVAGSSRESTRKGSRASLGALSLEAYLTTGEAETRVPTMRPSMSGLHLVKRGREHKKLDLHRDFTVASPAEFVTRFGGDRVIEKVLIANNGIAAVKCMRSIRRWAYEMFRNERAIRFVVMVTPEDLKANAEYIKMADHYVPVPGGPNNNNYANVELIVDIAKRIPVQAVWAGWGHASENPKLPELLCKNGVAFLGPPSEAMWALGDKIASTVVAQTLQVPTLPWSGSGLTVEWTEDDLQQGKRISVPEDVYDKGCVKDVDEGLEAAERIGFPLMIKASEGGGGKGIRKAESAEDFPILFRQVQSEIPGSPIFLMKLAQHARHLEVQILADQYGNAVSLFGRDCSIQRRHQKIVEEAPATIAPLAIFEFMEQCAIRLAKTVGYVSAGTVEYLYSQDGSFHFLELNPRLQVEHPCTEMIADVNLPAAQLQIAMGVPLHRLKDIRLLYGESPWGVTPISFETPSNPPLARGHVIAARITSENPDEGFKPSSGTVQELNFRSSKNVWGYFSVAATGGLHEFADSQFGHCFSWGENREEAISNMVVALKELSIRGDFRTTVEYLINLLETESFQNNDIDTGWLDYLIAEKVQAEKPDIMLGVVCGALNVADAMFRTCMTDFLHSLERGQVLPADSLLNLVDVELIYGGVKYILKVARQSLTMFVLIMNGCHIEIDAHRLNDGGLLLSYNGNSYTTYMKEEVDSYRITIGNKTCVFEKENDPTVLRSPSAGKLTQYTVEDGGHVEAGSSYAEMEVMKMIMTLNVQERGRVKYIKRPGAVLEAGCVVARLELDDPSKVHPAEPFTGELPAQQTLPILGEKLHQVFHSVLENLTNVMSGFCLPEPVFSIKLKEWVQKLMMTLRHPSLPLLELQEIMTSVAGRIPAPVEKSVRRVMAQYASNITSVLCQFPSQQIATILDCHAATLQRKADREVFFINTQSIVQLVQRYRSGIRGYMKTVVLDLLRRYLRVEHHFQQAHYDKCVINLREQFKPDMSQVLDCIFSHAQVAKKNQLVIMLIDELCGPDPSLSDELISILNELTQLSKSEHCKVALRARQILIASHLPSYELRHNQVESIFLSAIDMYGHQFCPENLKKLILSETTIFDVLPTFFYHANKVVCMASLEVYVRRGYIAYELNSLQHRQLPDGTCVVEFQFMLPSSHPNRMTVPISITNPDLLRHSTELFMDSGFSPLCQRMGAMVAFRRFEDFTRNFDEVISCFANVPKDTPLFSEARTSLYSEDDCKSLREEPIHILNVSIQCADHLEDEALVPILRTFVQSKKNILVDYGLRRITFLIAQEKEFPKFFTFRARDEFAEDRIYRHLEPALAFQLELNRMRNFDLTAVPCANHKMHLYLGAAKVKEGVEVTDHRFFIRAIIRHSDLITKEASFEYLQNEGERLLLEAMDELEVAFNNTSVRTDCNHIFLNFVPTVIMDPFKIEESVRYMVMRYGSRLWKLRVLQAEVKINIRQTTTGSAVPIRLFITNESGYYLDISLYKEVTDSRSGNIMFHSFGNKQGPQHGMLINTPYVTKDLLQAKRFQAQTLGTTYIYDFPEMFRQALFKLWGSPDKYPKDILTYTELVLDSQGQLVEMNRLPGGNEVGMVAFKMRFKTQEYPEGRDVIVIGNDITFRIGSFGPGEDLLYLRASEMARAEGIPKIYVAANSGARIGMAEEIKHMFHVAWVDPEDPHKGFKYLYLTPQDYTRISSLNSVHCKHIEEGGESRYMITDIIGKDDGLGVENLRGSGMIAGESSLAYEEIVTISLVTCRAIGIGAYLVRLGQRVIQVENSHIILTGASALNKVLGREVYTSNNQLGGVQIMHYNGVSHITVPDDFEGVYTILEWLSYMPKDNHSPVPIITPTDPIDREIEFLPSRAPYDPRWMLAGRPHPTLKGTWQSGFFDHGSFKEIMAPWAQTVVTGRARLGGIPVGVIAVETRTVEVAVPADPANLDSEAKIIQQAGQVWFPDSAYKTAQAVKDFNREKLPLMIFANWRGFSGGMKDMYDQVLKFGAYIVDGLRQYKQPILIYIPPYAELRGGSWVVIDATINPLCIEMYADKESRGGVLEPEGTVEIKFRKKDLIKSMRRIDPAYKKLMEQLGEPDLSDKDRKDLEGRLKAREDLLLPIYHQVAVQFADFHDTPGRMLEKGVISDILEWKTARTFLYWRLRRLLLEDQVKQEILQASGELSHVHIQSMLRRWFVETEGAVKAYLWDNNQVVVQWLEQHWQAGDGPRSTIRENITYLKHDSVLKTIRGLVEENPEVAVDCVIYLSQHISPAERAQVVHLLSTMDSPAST
# [5] = Effective AUC from plasma concentration time profile in the PC3 tumour model; type: in vivo, mouse
# Protocol: The human pharmacokinetic (PK) parameters (Table 9) were predicted based on the in vivo PK parameters obtained for rats (single species scaling), taking into account the interspecies differences in the free fraction (fu) in the plasma. The effective AUC (area under curve) was determined based on the measured plasma concentration time profile for in vivo efficacy in the PC3 tumour model of the mouse (nu/nu mouse).
# [6] = Maximum tolerated dose (MTD) in female nude mice; type: in vivo, mouse; settings: for Deaths: 21 days, 1 administration per day; for MTD at 21 days: female, NMRI-nude (nu/nu), mouse, in vivo, 21-day treatment, administration once per day, oral
# Protocol: To this end, initially the maximum tolerable dose (MTD) was determined using the following protocol:
# The MTD was defined as the highest dose which could be administered without any animal dying during the treatment phase, and without any body weight loss of more than 10% compared to the initial weight.
# as §2
# • (Solutol HS15: polyoxyethylene ester of 12-hydroxystearic acid) Administration volume: 10 ml/kg: Protocol: see Table 7
# The treatment phase was followed by an observation phase of 21 days.
# [7] = 100 mg/kg oral, 14 days, 1 administration per day
# [8] = 100 mg/kg oral, 14 days, 2 administrations per day
# [9] = 40 mg/kg oral, 20 days, 1 administration per day
# [10] = 80 mg/kg oral, 14 days, 2 administrations per day
# [11] = 80 mg/kg oral, 20 days, 1 administration per day
structure (smiles),measurement,setting,value
"CO[C@]1(C)CC[C@]2(CC1)NC(=O)C(c1cc(-c3ccc(Cl)cc3)ccc1C)=C2O [Example V.1-a, (5r,8r)-3-(4′-Chloro-4-methylbiphenyl-3-yl)-4-hydroxy-8-methoxy-8-methyl-1-azaspiro[4.5]dec-3-en-2-one]",IC50,human ACC1 [1],0.108 µM and 0.182 µM and 0.132 µM and 0.097 µM and 0.055 µM and 0.104 µM and 0.213 µM and 0.137 µM and 0.151 µM and 0.081 µM and 0.091 µM and 0.147 µM and 0.158 µM
same,Selectivity ACC1 vs. ACC2 (mean of the individual measurements ± standard deviation),human ACC1 [2],28.2 ± 8.5
same,CLplasma,[3],0.15 mL/min/kg
same,Vss,[3],0.3 L/kg
same,F,[3],83%
same,t½,[3],28 h
same,calc. AUC (human),[4]; from mouse dosage 100 mg/kg 1 × per day,6494 µg·h/mL
same,calc. AUC (human),[4]; from mouse dosage 100 mg/kg 2 × per day,9867 µg·h/mL
same,pred. CL (human),[4],0.05 mL/min/kg
same,Deaths,human PC-3 cells; [7],0 of 9
same,T/C,human PC-3 cells; [7],0.30
same,Deaths,human PC-3 cells; [8],2 of 9
same,T/C,human PC-3 cells; [8],0.15
same,tolerability (good: body weight change <=minus 10% and 100% survival),"human PC-3 cells; 100 mg/kg, administration 2 times per day",no good tolerability
same,tolerability (good: body weight change <=minus 10% and 100% survival),"human PC-3 cells; 100 mg/kg, administration once per day",good tolerability
same,IC50,human ACC2,3.13 µM and 3.93 µM and 4.54 µM and 2.53 µM and 2.33 µM and 2.51 µM and 3.36 µM and 2.75 µM and 2.03 µM and 2.86 µM and 3.32 µM and 5.14 µM and 5.2 µM
same,IC50,human ACC2; listed as V.3-a,3.13 µM and 3.93 µM and 4.54 µM and 2.53 µM and 2.33 µM and 2.51 µM and 3.36 µM and 2.75 µM and 2.03 µM and 2.86 µM and 3.32 µM and 5.14 µM and 5.2 µM
same,ther. AUC (mouse),[5]; dosage (mouse) 100 mg/kg 1 × per day,984 µg·h/mL
same,ther. AUC (mouse),[5]; dosage (mouse) 100 mg/kg 2 × per day,1495 µg·h/mL
same,Deaths,[6]; 25 mg/kg oral,0 of 4
same,Deaths,[6]; 50 mg/kg oral,0 of 4
same,Deaths,[6]; 100 mg/kg oral,0 of 4
same,MTD at 21 days,[6],> 100 mg/kg
"CO[C@]1(C)CC[C@]2(CC1)NC(=O)C(c1cc(-c3ccc(Cl)c(F)c3)ccc1C)=C2O [Example V.2-a, (5r,8r)-3-(4′-Chloro-3′-fluoro-4-methylbiphenyl-3-yl)-4-hydroxy-8-methoxy-8-methyl-1-azaspiro[4.5]dec-3-en-2-one]",IC50,human ACC1 [1]; listed as V.4-a,83 nM and 249 nM and 63 nM and 67 nM and 154 nM and 184 nM (2×) and 90 nM and 87 nM and 75 nM
same,IC50,human ACC1 [1],83 nM and 249 nM and 63 nM and 67 nM and 154 nM and 184 nM (2×) and 90 nM and 87 nM and 75 nM
same,Selectivity ACC1 vs. ACC2 (mean of the individual measurements ± standard deviation),human ACC1 [2],57.2 ± 6.4
same,Selectivity ACC1 vs. ACC2 (mean of the individual measurements ± standard deviation),human ACC1 [2]; listed as V.4-a,57.2 ± 26.4
same,CLplasma,[3],0.217 mL/min/kg
same,Vss,[3],0.51 L/kg
same,F,[3],71%
same,t½,[3],33 h
same,calc. AUC (human),[4]; from mouse dosage 80 mg/kg 1 × per day,3737 µg·h/mL
same,calc. AUC (human),[4]; from mouse dosage 80 mg/kg 2 × per day,4702 µg·h/mL
same,pred. CL (human),[4],0.1 mL/min/kg
same,Deaths,human PC-3 cells; [9],0 of 9
same,T/C,human PC-3 cells; [9],0.71
same,Deaths,human PC-3 cells; [10],1 of 9
same,T/C,human PC-3 cells; [10],0.27
same,Deaths,human PC-3 cells; [11],0 of 9
same,T/C,human PC-3 cells; [11],0.44
same,tolerability (good: body weight change <=minus 10% and 100% survival),"human PC-3 cells; 80 mg/kg, administration 2 times per day",no good tolerability
same,tolerability (good: body weight change <=minus 10% and 100% survival),"human PC-3 cells; 80 mg/kg, administration once per day",good tolerability
same,IC50,human ACC2,9.56 µM and 9.2 µM and 4.99 µM and 5.8 µM and 8.63 µM and 7.81 µM and 8.81 µM and 3.99 µM and 2.14 µM and 2.9 µM
same,IC50,human ACC2; listed as V.4-a,9.56 µM and 9.2 µM and 4.99 µM and 5.8 µM and 8.63 µM and 7.81 µM and 8.81 µM and 3.99 µM and 2.14 µM and 2.9 µM
same,ther. AUC (mouse),[5]; dosage (mouse) 80 mg/kg 1 × per day,544 µg·h/mL
same,ther. AUC (mouse),[5]; dosage (mouse) 80 mg/kg 2 × per day,672 µg·h/mL
same,Deaths,[6]; 10 mg/kg oral,0 of 4
same,Deaths,[6]; 20 mg/kg oral,0 of 4
same,Deaths,[6]; 40 mg/kg oral,0 of 4
same,Deaths,[6]; 80 mg/kg oral,0 of 4
same,MTD at 21 days,[6],> 80 mg/kg
